Data on 1 molecule can be found in US12108719B2, “Methods for creating doubled haploid plants” (Monsanto Technology LLC, priority 2015, dated 2024).

In the test the test system is diploid maize plant. As to the kind of experiment: Multibud induction, embryo axis method (Example 8). Format: in vivo. Here is the method: Seeds of a diploid maize plant were surface sterilized comprising immersion using standard methods of the art and then germinated in vitro in growth media. One of the resulting seedlings was dissected from its seed two days after germination (embryo axis method). The dissected axis was then subjected to a multibud induction treatment comprising transfer to fresh multibud induction media containing cytokinin in the form of 10 mg/L BAP. After seven days in the multibud bud induction media, the treated seedlings were transferred back to a hormone-free regeneration media. […] These multibuds were dissected from the mother plant and transferred to rooting media comprising IBA and IAA. After approximately one week, the multibud-derived plants were transplanted into 10 inch pots and allowed to grow in a greenhouse until it was clear that each autonomously-growing multibud-derived shoot had formed ears and tassels that nicked. Each ear was then pollinated from the tassel growing in the same pot and then all plants were allowed to grow in greenhouse conditions until seed set.

As for `c1ccc(CNc2ncnc3nc[nH]c23)cc1` [BAP, 6-Benzylaminopurine], the multibud formation result (10 mg/L BAP for seven days, observed after approximately twenty days) is on record as “induced multibuds could be seen growing from the nodal regions of the stem”. Also, the “seed borne by ears of multibud-derived plants” value (10 mg/L BAP multibud induction, self-pollinated multibud-derived plants) was “dozens of seed each”.
